The values below come from US20110288154A1, “RNA Interference Mediated Inhibition of Epithelial Sodium Channel (ENaC) Gene Expression Using Short Interfering Nucleic Acid (siNA)” (MERCK & CO., INC., priority 2008, published 2011).

The data set concerns mSCNN1A mRNA. Put plainly: Screening of ENaCα siNAs in mouse NIH 3T3 cells (quantitative RT-PCR). The data set is classed as cell-based. Details: Percent Reduction of the mSCNN1A mRNA relative to a non-targeting control siNA / Mouse % KD (efficacy of ENaCα mRNA knockdown): concentration or dose not given beside the values. To be noted: mouse NIH 3T3 cells, n = 3; for Mean (mSCNN1A expression normalized to the level of m36B4) / Percent Reduction of the mSCNN1A mRNA relative to a non-targeting control siNA / Avg 36B4 Expression: 24 hours post-transfection; for Avg ENaCα Expression (mSCNN1A): harvested 24 hours post-transfection; for Avg 36B4 Expression: housekeeping gene used for normalisation. The protocol: siNA constructs (Table 1b) may be tested for efficacy in reducing ENaC RNA expression in, for example, A549 human lung carcinoma cells. A549 (human; ATCC cat# CCL-185) cells were cultured at 37° C. in the presence of 5% CO2 and grown in Ham's F12K medium with 2 mM L-glutamine adjusted to contain 1.5 g/L sodium bicarbonate and supplemented with fetal bovine serum at a final concentration of 10% and 100 U/mL penicillin. The A549 cells were plated approximately 24 hours before transfection in 96-well plates at 7,500 cells/well, 100 μl/well. After 24 hours complexes containing siNA and Lipofectamine 2000 (Invitrogen) were created as follows: a solution of Lipofectamine 2000 in OPTI-MEM was prepared containing Lipofectamine 2000 at a final concentration of 14 μg/ml. In parallel, solutions of the siNAs were prepared in OPTI-MEM at a final concentration of 150 nM. After both solutions were incubated at 20° C. for 20 minutes an equal volume of the siNA solutions and the Lipofectamine 2000 solution were added together for each of the siNAs. The resultant solution has the siNAs at a final concentration of 75 nM and Lipofectamine 2000 at a final concentration of 7 μg/ml. This solution was incubated at 20° C. for 20 minutes. After incubation 50 μl of the solution were added to each of the wells (in triplicate). The final concentration of siNA in each well was 25 nM and the final concentration of Lipofectamine 2000 in each well was 2.33 μg/ml. The plates were incubated for 48 hours with no change of media before harvesting. Dose response curves were determined in a similar manner with each concentration being done in triplicate and maintaining a constant amount of Lipofectamine 2000 in each transfection.
A series of probes and primers were used to detect the various mRNA transcripts of the genes of ENaCa and GAPDH in mouse, rat, and human cell lines. The assays were performed on an ABI 7500 instrument, according to the manufacturer's instructions. Within each experiment, the baseline was set in the exponential phase of the amplification curve, and based on the intersection point of the baselines with the amplification curve, a Ct value was assigned by the instrument. This Ct value was then assigned a QTY value based on the Standard Curve. The standard curve in the various experiments herein used 1 ng to 300 ng of RNA extracted from the same cell line used for the experimental transfections.
All IC50 values were calculated from the data using GraphPad Prizm software, specifically a sigmoidal, variable slope curve for simple ligand binding. Also, unless otherwise indicated, all calculations of the efficacy and potency (e.g., % knockdown) of the siNAs were done relative to a non-targeting control siNA. If reported, P-values were computed using The Students t-test, including the Welch Correction for unequal variances.
In all of the calculations of the % knock-down of mRNA, the calculation was made relative to the normalized level of expression of the gene of interest in the samples treated with the non-targeting control (NTC) unless otherwise indicated. The gene of interest expression level was divided by the level of expression of GAPDH or 36B4 (depending on the species) in each sample. The three replicates for each condition in each experiment were averaged and the standard deviation of those samples was calculated. The following formula was then used to calculate the % of knock-down of the gene of interest:
The ENaCα siNAs were designed and synthesized as described previously. The siNAs were screened in three cell lines. Human A549 cells, mouse NIH 3T3 and Rat H-4-II-E cells. The data from the screen of ENaCa siNAs in all three species is shown in Tables 3a, 3b, 4a, 4b, 5a, and 5b and a summary of the data for certain siNA molecules is presented in Table 6. Each screen was performed at 24 hrs. The decision to use this time point was based upon the degree of knockdown of the mRNA seen at that time point.

[invAb] = inverted abasic unit; d = 2'-deoxy (DNA); m = 2'-O-methyl; r = 2'-OH (RNA); f = 2'-fluoro

Regarding “B AAccGCAuGAAGAcGGccu TTB / AGGccGucuucAuGcGGuuUU (chain 1 AACCGCAUGAAGACGGCCUTT; chain 2 AGGCCGUCUUCAUGCGGUUUU; siRNA; chain 1: sugars from the 5' end ddffdddfdddddfddfffdd, [invAb] at 5' end, 3' end, backbone not given here; chain 2: sugars from the 5' end rrrffmfffffmfmfmmffmm, backbone not given here) [Site 337]”, the “Mean (mSCNN1A expression normalized to the level of m36B4)” value turned out to be 0.24, the “Percent Reduction of the mSCNN1A mRNA relative to a non-targeting control siNA” value is listed as 0.8%, the “Avg ENaCα Expression (mSCNN1A)” value was found to be 3.42 and the “Avg 36B4 Expression” value was 14.44.

In the case of “B AAccuGGGcAGccAGuGGA TTB / UCCAcuGGcuGcccAGGuuUU (sense AACCUGGGCAGCCAGUGGATT; antisense UCCACUGGCUGCCCAGGUUUU; siRNA; sense: sugars from the 5' end ddfffdddfddffddfddrdd, [invAb] at 5' end, 3' end, backbone not given here; antisense: sugars from the 5' end rrrmffmmffmfffmmmffmm, backbone not given here) [Site 1747]”, the “Mean (mSCNN1A expression normalized to the level of m36B4)” value is reported as 0.15, the “Percent Reduction of the mSCNN1A mRNA relative to a non-targeting control siNA” value was −6.1%, the “Avg ENaCα Expression (mSCNN1A)” value is listed as 3.67 and the “Avg 36B4 Expression” value is given as 25.19.

As for “B AGccAGuGGAGccuGuGGu TTB / ACCAcAGGcuccAcuGGcuUU (sense AGCCAGUGGAGCCUGUGGUTT; antisense ACCACAGGCUCCACUGGCUUU; siRNA; sense: DNA at AGT, 2'-fluoro at CU, [invAb] at 5' end, 3' end, backbone not given here; antisense: sugars from the 5' end rrrmfmmmffffmffmmffmm, backbone not given here) [Site 1756]”, the “Mean (mSCNN1A expression normalized to the level of m36B4)” value is 0.12, the “Percent Reduction of the mSCNN1A mRNA relative to a non-targeting control siNA” value stood at 13.5%, the “Avg ENaCα Expression (mSCNN1A)” value amounted to 2.58 and the “Avg 36B4 Expression” value is on record as 21.66.

As for “B AGuGuGGcuGuGccuAcAu TTB / AUGuAGGcAcAGccAcAcuUU (sense AGUGUGGCUGUGCCUACAUTT; antisense AUGUAGGCACAGCCACACUUU; siRNA; sense: DNA at AGT, 2'-fluoro at CU, [invAb] at 5' end, 3' end, backbone not given here; antisense: sugars from the 5' end rrrfmmmfmfmmffmfmffmm, backbone not given here) [Site 1382]”, the “Mean (mSCNN1A expression normalized to the level of m36B4)” value is 0.21, the “Percent Reduction of the mSCNN1A mRNA relative to a non-targeting control siNA” value is listed as 10.7%, the “Avg ENaCα Expression (mSCNN1A)” value is recorded as 2.94 and the “Avg 36B4 Expression” value came out at 13.77.

Turning to “B AccGcAuGAAGAcGGccuu TTB / AAGGccGucuucAuGcGGuUU (chain 1 ACCGCAUGAAGACGGCCUUTT; chain 2 AAGGCCGUCUUCAUGCGGUUU; siRNA; chain 1: DNA at AGT, 2'-fluoro at CU, [invAb] at 5' end, 3' end, backbone not given here; chain 2: sugars from the 5' end rrrmffmfffffmfmfmmfmm, backbone not given here) [Site 338]”, the “Mean (mSCNN1A expression normalized to the level of m36B4)” value was determined as 0.26, the “Percent Reduction of the mSCNN1A mRNA relative to a non-targeting control siNA” value is given as −9.5%, the “Avg ENaCα Expression (mSCNN1A)” value is reported as 3.24 and the “Avg 36B4 Expression” value was determined as 12.29.

For “B AccuGGGcAGccAGuGGAG TTB / CUCcAcuGGcuGcccAGGuUU (sense ACCUGGGCAGCCAGUGGAGTT; antisense CUCCACUGGCUGCCCAGGUUU; siRNA; sense: DNA at AGT, 2'-fluoro at CU, [invAb] at 5' end, 3' end, backbone not given here; antisense: sugars from the 5' end rrrfmffmmffmfffmmmfmm, backbone not given here) [Site 1748]”, the “Mean (mSCNN1A expression normalized to the level of m36B4)” value was 0.15, the “Percent Reduction of the mSCNN1A mRNA relative to a non-targeting control siNA” value is given as −12.7%, the “Avg ENaCα Expression (mSCNN1A)” value is 4.06 and the “Avg 36B4 Expression” value turned out to be 26.15.

With “B GGGcAGccAGuGGAGccuG TTB / CAGGcuccAcuGGcuGcccUU (sense GGGCAGCCAGUGGAGCCUGTT; antisense CAGGCUCCACUGGCUGCCCUU; siRNA; sense: DNA at AGT, 2'-fluoro at CU, [invAb] at 5' end, 3' end, backbone not given here; antisense: sugars from the 5' end rrrmffffmffmmffmfffmm, backbone not given here) [Site 1752]”, the “Mean (mSCNN1A expression normalized to the level of m36B4)” value worked out at 0.11, the “Percent Reduction of the mSCNN1A mRNA relative to a non-targeting control siNA” value is 19.8%, the “Avg ENaCα Expression (mSCNN1A)” value came out at 3.21 and the “Avg 36B4 Expression” value was 29.27.

For “B GGcAGccAGuGGAGccuGu TTB / ACAGGcuccAcuGGcuGccUU (sense GGCAGCCAGUGGAGCCUGUTT; antisense ACAGGCUCCACUGGCUGCCUU; siRNA; sense: DNA at AGT, 2'-fluoro at CU, [invAb] at 5' end, 3' end, backbone not given here; antisense: sugars from the 5' end rrrmmffffmffmmffmffmm, backbone not given here) [Site 1753]”, the “Mean (mSCNN1A expression normalized to the level of m36B4)” value turned out to be 0.12, the “Percent Reduction of the mSCNN1A mRNA relative to a non-targeting control siNA” value was 9.6%, the “Avg ENaCα Expression (mSCNN1A)” value was determined as 3.13 and the “Avg 36B4 Expression” value is 25.27.

As for “B GGcuGuGccuAcAucuucu TTB / AGAAGAuGucGGcAcAGccUU (sense GGCUGUGCCUACAUCUUCUTT; antisense AGAAGAUGUCGGCACAGCCUU; siRNA; sense: DNA at AGT, 2'-fluoro at CU, [invAb] at 5' end, 3' end, backbone not given here; antisense: sugars from the 5' end rrrmmmfmffmmfmfmmffmm, backbone not given here) [Site 1387]”, the “Mean (mSCNN1A expression normalized to the level of m36B4)” value was determined as 0.06, the “Percent Reduction of the mSCNN1A mRNA relative to a non-targeting control siNA” value is listed as 59.1%, the “Avg ENaCα Expression (mSCNN1A)” value is recorded as 1.37 and the “Avg 36B4 Expression” value is 24.37.

As for “B GcAuGAAGAcGGccuucuG TTB / CAGAAGGccGuCuucAuGcUU (chain 1 GCAUGAAGACGGCCUUCUGTT; chain 2 CAGAAGGCCGUCUUCAUGCUU; siRNA; chain 1: DNA at AGT, 2'-fluoro at CU, [invAb] at 5' end, 3' end, backbone not given here; chain 2: sugars from the 5' end rrrmmmmffmfmfffmfmfmm, backbone not given here) [Site 341]”, the “Mean (mSCNN1A expression normalized to the level of m36B4)” value was determined as 0.23, the “Percent Reduction of the mSCNN1A mRNA relative to a non-targeting control siNA” value is 3.9%, the “Avg ENaCα Expression (mSCNN1A)” value is listed as 3.17 and the “Avg 36B4 Expression” value is 13.56.
